Measurements reported in patent publication US20100190846A1, “MICROBICIDAL AGENT AND MICROBICIDAL COMPOSITION” (priority 2006, published 2010).
Values after ≈ are worked out from the molar mass of the structure shown.

Experiments:
Test in all cases: Agar dilution method microbicidal test
Format in all cases: cell-based
Bacillus cereus = system: Bacillus cereus; further: key: +: grew; −: did not grow
Procedure: (§1) As microbicidal test method for trans-p-coumaric acid, 3-hydroxypyridine, p-hydroxybenzaldehyde and vanillin, the agar dilution method was employed.
(§2) In agar dilution method, a solution in which a sample is dissolved is serially diluted several times, and each of the diluted sample solutions is mixed with agar medium to prepare plate agars having various sample concentration. Then bacteria is inoculated onto the plate agars. In cases where the sample has a microbicidal activity, the growth of the bacteria on the plates can be inhibited. The lowest concentration which can inhibit the growth of the bacteria is referred to as Minimum Inhibitory Concentration (MIC), thereby judging the degree of a microbicidal activity of the sample.
(§3) First, 400 mg of sample was dissolved in 1 mL of DMSO to prepare 400 mg/mL sample solution. Then 0.5 mL of this 400 mg/mL sample solution was diluted 2-fold to prepare 200 mg/mL sample solution. In the same manner, sample solutions of 100 mg/mL, 50.0 mg/mL, and 25.0 mg/mL were prepared. In addition, 300 mg/mL sample solution was prepared. Thereafter, 0.2 mL of these sample solutions each was mixed with 19.8 mL of BHI (Brain Heart Infusion Agar, Becton Dickinson, MD) medium, thereby preparing agar plates having the sample concentration of 4.0 mg/mL, 3.0 mg/mL, 2.0 mg/mL, 1.0 mg/mL, 0.5 mg/mL, and 0.25 mg/mL in dishes. […] Sterilized water was used for dissolving catechin, because catechin was insoluble in DMSO.
(§4) As test bacteria, 13 kinds of bacteria, i.e., Streptococcus pneumoniae, Streptococcus pyogenes, Enterococcus faecalis, Staphylococcus aureus, Escherichia coli, Salmonella sp., Yersinia enterocolitica, Vibrio parahaemolyticus, Pseudomonas aeruginosa, Bacillus cereus, Bacillus subtilis MB-32, Bacillus subtilis ATCC6633, and Candida sp., were used. These bacteria each was mixed with 2 mL of sterilized MHB^R liquid medium (Mueller Hinton Broth^R, Becton Dickinson, MD) to prepare bacterial suspension having turbidity 1 (bacterial concentration 10^8/mL). Previously, small test tubes were set into each cell of a grating and sterilized, and 1 mL of 13 bacterial suspensions were added into the small test tubes set in the grating, respectively. By using a microplanter (SAKUMA, model: MIT-P), 10 μL aliquot was collected from each test tube set in the grating and transferred to other test tube, and the transferred bacterial suspensions were diluted 100-fold (bacterial concentration 10^6/mL).
(§5) By using the microplanter, 10 μL (bacterial number […]) of this bacterial suspension was inoculated onto the plates containing the sample solution of various concentrations. The plates were incubated for 18 hours in an incubator at 37° C., and then a microbicidal activity of each compound was assessed.

Streptococcus pyogenes = system: Streptococcus pyogenes; on Growth on agar plate: key: +: grew; −: did not grow
Procedure: as §1, §2, §3, §4, §5

[1] = system: Bacillus subtilis ATCC6633; settings: Bacillus subtilis ATCC 6633; further: key: +: grew; −: did not grow
Procedure: as §1, §2, §3, §4, §5

Streptococcus pneumoniae = system: Streptococcus pneumoniae; on Growth on agar plate: key: +: grew; −: did not grow
Procedure: as §1, §2, §3, §4, §5

Escherichia coli = system: Escherichia coli; further: key: +: grew; −: did not grow
Procedure: as §1, §2, §3, §4, §5

Vibrio parahaemolyticus = system: Vibrio parahaemolyticus; on Growth on agar plate: key: +: grew; −: did not grow
Procedure: as §1, §2, §3, §4, §5

Enterococcus faecalis = system: Enterococcus faecalis; further: key: +: grew; −: did not grow
Procedure: as §1, §2, §3, §4, §5

Pseudomonas aeruginosa = system: Pseudomonas aeruginosa; on Growth on agar plate: key: +: grew; −: did not grow
Procedure: as §1, §2, §3, §4, §5

Bacillus subtilis MB-32 = system: Bacillus subtilis MB-32; further: key: +: grew; −: did not grow
Procedure: as §1, §2, §3, §4, §5

Staphylococcus aureus = system: Staphylococcus aureus; on Growth on agar plate: key: +: grew; −: did not grow
Procedure: as §1, §2, §3, §4, §5

Yersinia enterocolitica = system: Yersinia enterocolitica; on Growth on agar plate: key: +: grew; −: did not grow
Procedure: as §1, §2, §3, §4, §5

Salmonella sp. = system: Salmonella sp. Further: key: +: grew; −: did not grow.
Procedure: as §1, §2, §3, §4, §5

Candida sp. = system: Candida sp. On Growth on agar plate: key: +: grew; −: did not grow.
Procedure: as §1, §2, §3, §4, §5

[2] = BHI agar, 37° C., 18 hours, read-out: MIC

Oc1cccnc1 [3-Hydroxypyridine, 3-hydroxypyridine]
Growth on agar plate (Bacillus cereus; 0.25 mg/mL): + | Growth on agar plate (Bacillus cereus; 0.5 mg/mL): + | Growth on agar plate (Bacillus cereus; 1.0 mg/mL): + | Growth on agar plate (Bacillus cereus; 2.0 mg/mL): + | Growth on agar plate (Bacillus cereus; 3.0 mg/mL): + | Growth on agar plate (Bacillus cereus; 4.0 mg/mL): + | activity (in words) (Streptococcus pyogenes): had an activity | Growth on agar plate (Streptococcus pyogenes; 0.25 mg/mL): + | Growth on agar plate (Streptococcus pyogenes; 0.5 mg/mL): + | Growth on agar plate (Streptococcus pyogenes; 1.0 mg/mL): + | Growth on agar plate (Streptococcus pyogenes; 2.0 mg/mL): + | Growth on agar plate (Streptococcus pyogenes; 3.0 mg/mL): + | Growth on agar plate (Streptococcus pyogenes; 4.0 mg/mL): − | MIC (Streptococcus pyogenes; [2]): 4000 µg/mL (≈ 42.1 mM) | Growth on agar plate ([1]; 0.25 mg/mL): + | Growth on agar plate ([1]; 0.5 mg/mL): + | Growth on agar plate ([1]; 1.0 mg/mL): + | Growth on agar plate ([1]; 2.0 mg/mL): + | Growth on agar plate ([1]; 3.0 mg/mL): + | Growth on agar plate ([1]; 4.0 mg/mL): + | activity (in words) (Streptococcus pneumoniae): had an activity | Growth on agar plate (Streptococcus pneumoniae; 0.25 mg/mL): + | Growth on agar plate (Streptococcus pneumoniae; 0.5 mg/mL): + | Growth on agar plate (Streptococcus pneumoniae; 1.0 mg/mL): + | Growth on agar plate (Streptococcus pneumoniae; 2.0 mg/mL): + | Growth on agar plate (Streptococcus pneumoniae; 3.0 mg/mL): + | Growth on agar plate (Streptococcus pneumoniae; 4.0 mg/mL): − | MIC (Streptococcus pneumoniae; [2]): 4000 µg/mL (≈ 42.1 mM) | Growth on agar plate (Escherichia coli; 0.25 mg/mL): + | Growth on agar plate (Escherichia coli; 0.5 mg/mL): + | Growth on agar plate (Escherichia coli; 1.0 mg/mL): + | Growth on agar plate (Escherichia coli; 2.0 mg/mL): + | Growth on agar plate (Escherichia coli; 3.0 mg/mL): + | Growth on agar plate (Escherichia coli; 4.0 mg/mL): + | Growth on agar plate (Vibrio parahaemolyticus; 0.25 mg/mL): + | Growth on agar plate (Vibrio parahaemolyticus; 0.5 mg/mL): + | Growth on agar plate (Vibrio parahaemolyticus; 1.0 mg/mL): + | Growth on agar plate (Vibrio parahaemolyticus; 2.0 mg/mL): + | Growth on agar plate (Vibrio parahaemolyticus; 3.0 mg/mL): + | Growth on agar plate (Vibrio parahaemolyticus; 4.0 mg/mL): − | MIC (Vibrio parahaemolyticus; [2]): 4000 µg/mL (≈ 42.1 mM) | Growth on agar plate (Enterococcus faecalis; 0.25 mg/mL): + | Growth on agar plate (Enterococcus faecalis; 0.5 mg/mL): + | Growth on agar plate (Enterococcus faecalis; 1.0 mg/mL): + | Growth on agar plate (Enterococcus faecalis; 2.0 mg/mL): + | Growth on agar plate (Enterococcus faecalis; 3.0 mg/mL): + | Growth on agar plate (Enterococcus faecalis; 4.0 mg/mL): + | activity (in words) (Pseudomonas aeruginosa): had an activity | Growth on agar plate (Pseudomonas aeruginosa; 0.25 mg/mL): + | Growth on agar plate (Pseudomonas aeruginosa; 0.5 mg/mL): + | Growth on agar plate (Pseudomonas aeruginosa; 1.0 mg/mL): + | Growth on agar plate (Pseudomonas aeruginosa; 2.0 mg/mL): + | Growth on agar plate (Pseudomonas aeruginosa; 3.0 mg/mL): + | Growth on agar plate (Pseudomonas aeruginosa; 4.0 mg/mL): − | MIC (Pseudomonas aeruginosa; [2]): 4000 µg/mL (≈ 42.1 mM) | Growth on agar plate (Bacillus subtilis MB-32; 0.25 mg/mL): + | Growth on agar plate (Bacillus subtilis MB-32; 0.5 mg/mL): + | Growth on agar plate (Bacillus subtilis MB-32; 1.0 mg/mL): + | Growth on agar plate (Bacillus subtilis MB-32; 2.0 mg/mL): + | Growth on agar plate (Bacillus subtilis MB-32; 3.0 mg/mL): + | Growth on agar plate (Bacillus subtilis MB-32; 4.0 mg/mL): + | activity (in words) (Staphylococcus aureus): had an activity | Growth on agar plate (Staphylococcus aureus; 0.25 mg/mL): + | Growth on agar plate (Staphylococcus aureus; 0.5 mg/mL): + | Growth on agar plate (Staphylococcus aureus; 1.0 mg/mL): + | Growth on agar plate (Staphylococcus aureus; 2.0 mg/mL): + | Growth on agar plate (Staphylococcus aureus; 3.0 mg/mL): + | Growth on agar plate (Staphylococcus aureus; 4.0 mg/mL): − | MIC (Staphylococcus aureus; [2]): 4000 µg/mL (≈ 42.1 mM) | activity (in words) (Yersinia enterocolitica): had an activity | Growth on agar plate (Yersinia enterocolitica; 0.25 mg/mL): + | Growth on agar plate (Yersinia enterocolitica; 0.5 mg/mL): + | Growth on agar plate (Yersinia enterocolitica; 1.0 mg/mL): + | Growth on agar plate (Yersinia enterocolitica; 2.0 mg/mL): + | Growth on agar plate (Yersinia enterocolitica; 3.0 mg/mL): + | Growth on agar plate (Yersinia enterocolitica; 4.0 mg/mL): − | MIC (Yersinia enterocolitica; [2]): 4000 µg/mL (≈ 42.1 mM) | Growth on agar plate (Salmonella sp.; 0.25 mg/mL): + | Growth on agar plate (Salmonella sp.; 0.5 mg/mL): + | Growth on agar plate (Salmonella sp.; 1.0 mg/mL): + | Growth on agar plate (Salmonella sp.; 2.0 mg/mL): + | Growth on agar plate (Salmonella sp.; 3.0 mg/mL): + | Growth on agar plate (Salmonella sp.; 4.0 mg/mL): + | activity (in words) (Candida sp.): had an activity | Growth on agar plate (Candida sp.; 0.25 mg/mL): + | Growth on agar plate (Candida sp.; 0.5 mg/mL): + | Growth on agar plate (Candida sp.; 1.0 mg/mL): + | Growth on agar plate (Candida sp.; 2.0 mg/mL): + | Growth on agar plate (Candida sp.; 3.0 mg/mL): + | Growth on agar plate (Candida sp.; 4.0 mg/mL): − | MIC (Candida sp.; [2]): 4000 µg/mL (≈ 42.1 mM)
